In patent US7741354B2, “Inhibitors of glutaminyl cyclase” (Probiodrug AG, priority 2006, dated 2010):

target: hQC (Homo sapiens, UniProt Q16769); assay: Fluorometric (fluorescent) assay of hQC inhibition, IC50; format: biochemical; conditions: hQC inhibition; read-out: IC50
Procedure, shortened: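 QC activity followed at 30° C via pyroglutamyl aminopeptidase-coupled release of fluorophore, using either H-Gln-βNA (0.2 mM; ex/em 320/410 nm; 0.2 M Tris/HCl pH 8.0, 20 mM EDTA) or H-Gln-AMC (ex/em 380/460 nm; 0.05 M Tris/HCl pH 8.0, 5 mM EDTA).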

hQC, sequence (Q16769 29-361): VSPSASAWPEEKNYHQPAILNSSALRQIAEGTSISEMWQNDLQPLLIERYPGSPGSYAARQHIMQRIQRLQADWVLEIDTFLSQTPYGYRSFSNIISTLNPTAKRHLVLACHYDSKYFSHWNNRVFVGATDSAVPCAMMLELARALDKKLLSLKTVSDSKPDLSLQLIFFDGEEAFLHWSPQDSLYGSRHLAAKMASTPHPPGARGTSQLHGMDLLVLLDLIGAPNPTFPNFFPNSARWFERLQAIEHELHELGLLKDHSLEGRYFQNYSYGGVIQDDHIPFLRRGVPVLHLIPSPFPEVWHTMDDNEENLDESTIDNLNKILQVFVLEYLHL

SMILES	IC50
CCOC(=O)C1CCCCC1n1nnnc1C(Nc1ccc2[nH]cnc2c1)c1cccc(OC)c1 (centres unmarked) [compound 192]	8.5 µM
Cc1cc(C(Nc2ccc3[nH]cnc3c2)c2nnnn2CC2CCCO2)cc(C)c1O (centres unmarked) [compound 131, 4-{(1H-Benzoimidazol-5-ylamino)-[1-(tetrahydro-furan-2-ylmethyl)-1H-tetrazol-5-yl]-methyl}-2,6-dimethyl-phenol]	6.7 µM
CCOC(=O)C1CCCCC1n1nnnc1C(Nc1ccc2[nH]cnc2c1)c1c[nH]c2cc(C)ccc12 (centres unmarked) [compound 196]	8.5 µM
CCOC(=O)C1CCCCC1n1nnnc1C(Nc1ccc2[nH]cnc2c1)c1cc(C)cc(C)c1 (centres unmarked) [compound 157]	5.8 µM
COc1ccc(C(Nc2ccc3[nH]cnc3c2)c2nnnn2CC2CCCO2)cc1F (centres unmarked) [compound 163, (1H-Benzoimidazol-5-yl)-{(3-fluoro-4-methoxy-phenyl)-[1-(tetrahydro-furan-2-ylmethyl)-1H-tetrazol-5-yl]-methyl}-amine]	8.5 µM
COC(=O)c1cccc(C(Nc2ccc3[nH]cnc3c2)c2nnnn2CC2CCCO2)c1 (centres unmarked) [compound 154, 3-{(1H-Benzoimidazol-5-ylamino)-[1-(tetrahydro-furan-2-ylmethyl)-1H-tetrazol-5-yl]-methyl}-benzoic acid methyl ester]	5.8 µM
C1=CCC(C(Nc2ccc3[nH]cnc3c2)c2nnnn2CCc2cccs2)CC1 (centres unmarked) [compound 167, (1H-Benzoimidazol-5-yl)-{cyclohex-3-enyl-[1-(2-thiophen-2-yl-ethyl)-1H-tetrazol-5-yl]-methyl}-amine]	8.5 µM
CCOC(=O)C1CCCCC1n1nnnc1C(Nc1ccc2[nH]cnc2c1)c1csc2ccccc12 (centres unmarked) [compound 145]	1.3 µM

Second part, the molecule after the results:

IC50	SMILES
8.5 µM	C/C=C/C=C/C(Nc1ccc2[nH]cnc2c1)c1nnnn1Cc1cccnc1 (centres unmarked) [compound 173, (1H-Benzoimidazol-5-yl)-[(2E,4E)-1-(1-pyridin-3-ylmethyl-1H-tetrazol-5-yl)-hexa-2,4-dienyl]-amine]
4 µM	Brc1cc(Br)cc(C(Nc2ccc3[nH]cnc3c2)c2nnnn2-c2ccc3c(c2)OCCO3)c1 (centres unmarked) [compound 179, (1H-Benzoimidazol-5-yl)-{(3,5-dibromo-phenyl)-[1-(2,3-dihydro-benzo[1,4]dioxin-6-yl)-1H-tetrazol-5-yl]-methyl}-amine]
5.8 µM	COc1ccccc1C(Nc1ccc2[nH]cnc2c1)c1nnnn1Cc1ccccc1 (centres unmarked) [compound 151]
9.4 µM	Oc1cccc(C(Nc2ccc3[nH]cnc3c2)c2nnnn2CC2CCCO2)c1 (centres unmarked) [compound 152]
5.8 µM	Brc1cc(Br)cc(C(Nc2ccc3[nH]cnc3c2)c2nnnn2C(c2ccccc2)c2ccccc2)c1 (centres unmarked) [compound 186, [(1-Benzhydryl-1H-tetrazol-5-yl)-(3,5-dibromo-phenyl)-methyl]-(1H-benzoimidazol-5-yl)-amine]
9.4 µM	O=c1c(C(Nc2ccc3[nH]cnc3c2)c2nnnn2CC2CCCO2)coc2ccccc12 (centres unmarked) [compound 159, 3-{(1H-Benzoimidazol-5-ylamino)-[1-(tetrahydro-furan-2-ylmethyl)-1H-tetrazol-5-yl]-mthyl}-chromen-4-one]
4 µM	Brc1cc(Br)cc(C(Nc2ccc3[nH]cnc3c2)c2nnnn2CCC(c2ccccc2)c2ccccc2)c1 (centres unmarked) [compound 188, (1H-Benzoimidazol-5-yl)-{(3,5-dibromo-phenyl)-[1-(3,3-diphenyl-propyl)-1H-tetrazol-5-yl]-methyl}-amine]
0.4 µM	Clc1ccc(Cn2nnnc2C(Nc2ccc3[nH]cnc3c2)c2ccc3c(c2)OCO3)cc1 (centres unmarked) [compound 160, {Benzo[1,3]dioxol-5-yl-[1-(4-chloro-benzyl)-1H-tetrazol-5-yl]-methyl}-(1H-benzoimidazol-5-yl)-amine]
4.9 µM	OCc1ccc(C(Nc2ccc3[nH]cnc3c2)c2nnnn2-c2ccccc2OCc2ccccc2)o1 (centres unmarked) [compound 143, (5-{(1H-Benzoimidazol-5-ylamino)-[1-(2-benzyloxy-phenyl)-1H-tetrazol-5-yl]-methyl}-furan-2-yl)-methanol]
2.2 µM	CC(C)(C)OC(=O)Cn1nnnc1C(Nc1ccc2[nH]cnc2c1)c1ccc2c(c1)OCO2 (centres unmarked) [compound 119, {5-[Benzo[1,3]dioxol-5-yl-(1H-benzoimidazol-5-ylamino)-methyl]-tetrazol-1-yl}-acetic acid tert-butyl ester]
1.3 µM	O=C(Cn1nnnc1C(Nc1ccc2[nH]cnc2c1)c1cc(Br)cc(Br)c1)NCCc1c[nH]c2ccccc12 (centres unmarked) [compound 187, 2-{5-[(1H-Benzoimidazol-5-ylamino)-(3,5-dibromo-phenyl)-methyl]-tetrazol-1-yl}-N-[2-(1H-indol-3-yl)-ethyl]-acetamide]
3.1 µM	CCc1ccc(C(Nc2ccc3[nH]cnc3c2)c2nnnn2Cc2ccccc2)s1 (centres unmarked) [compound 133, (1H-Benzoimidazol-5-yl)-[(1-benzyl-1H-tetrazol-5-yl)-(5-ethyl-thiophen-2-yl)-methyl]-amine]
4.9 µM	CC(Cc1ccc2c(c1)OCO2)C(Nc1ccc2[nH]cnc2c1)c1nnnn1CC(=O)OC(C)(C)C (centres unmarked) [compound 149, {5-[3-Benzo[1,3]dioxol-5-yl-1-(1H-benzoimidazol-5-ylamino)-2-methyl-propyl]-tetrazol-1-yl}-acetic acid tert-butyl ester]
4.9 µM	Brc1cc(Br)cc(C(Nc2ccc3[nH]cnc3c2)c2nnnn2-c2ccccc2OCc2ccccc2)c1 (centres unmarked) [compound 180, (1H-Benzoimidazol-5-yl)-[[1-(2-benzyloxy-phenyl)-1H-tetrazol-5-yl]-(3,5-dibromo-phenyl)-methyl]-amine]

same assay, conditions: purified compound from preparative synthesis; fluorescent assay; read-out: IC50 hQC

SMILES	IC50
CC(C)(C)Cn1nnnc1C(NCCCn1ccnc1)c1ccc2cccc(O)c2n1 (centres unmarked) [Compound 64, 2-[[1-(2,2-Dimethyl-propyl)-1H-tetrazol-5-yl]-(3-imidazol-1-yl-propylamino)-methyl]-quinolin-8-ol]	1.03 µM

same assay, conditions: read-out: IC50

SMILES	IC50
COCCCn1nnnc1C(NCCCn1ccnc1)c1ccc2[nH]ccc2c1 (centres unmarked) [compound 35, (3-Imidazol-1-yl-propyl)-{(1H-indol-5-yl)-[1-(3-methoxy-propyl)-1H-tetrazol-5-yl]-methyl}-amine]	7.6 µM
COC(=O)Cn1nnnc1C(NCCCn1ccnc1)c1ccc2[nH]ccc2c1 (centres unmarked) [compound 54, {5-[(3-Imidazol-1-yl-propylamino)-(1H-indol-5-yl)-methyl]-tetrazol-1-yl}-acetic methyl ester]	5.8 µM
CCCCn1nnnc1C(NCCCn1ccnc1)c1cc(C)c(C)cc1C (centres unmarked) [compound 24, [(1-Butyl-1H-tetrazol-5-yl)-(2,4,5-trimethyl-phenyl)-methy]-(3-imidazol-1-yl-propyl)-amine]	4.9 µM
COCCCn1nnnc1C(NCCCn1ccnc1)c1ccc2cccc(O)c2n1 (centres unmarked) [compound 34, 2-{(3-Imidazol-1-yl-propylamino)-[1-(3-methoxy-propyl)-1H-tetrazol-5-yl]-methyl}-quinolin-8-ol]	2.2 µM
CCCCn1nnnc1C(NCCCn1ccnc1)c1ccc(Cl)c(Cl)c1 (centres unmarked) [compound 18, [(1-Butyl-1H-tetrazol-5-yl)-(3,4-dichloro-phenyl)-methyl]-(3-imidazol-1-yl-propyl)-amine]	7.6 µM
CC(C)(C)Cn1nnnc1C(NCCCn1ccnc1)[C@@H]1CCC=CO1 (some centres unmarked) [compound 67]	6.7 µM
Cc1ccc2c(C(Nc3ccc4[nH]cnc4c3)c3nnnn3CC3CCCO3)c[nH]c2c1 (centres unmarked) [compound 80, (1H-Benzoimidazol-5-yl)-{(6-methyl-1H-indol-3-yl)-[1-(tetrahydro-furan-2-ylmethyl)-1H-tetrazol-5-yl]-methyl}-amine]	6.7 µM
CN(C)CCn1nnnc1C(NCCCn1ccnc1)c1ccc2cccc(O)c2n1 (centres unmarked) [compound 37, 2-[[1-(2-Dimethylamino-ethyl)-1H-tetrazol-5-yl]-(3-imidazol-1-yl-propylamino)-methyl]-quinolin-8-ol]	4.9 µM
COCCn1nnnc1C(NCCCn1ccnc1)c1ccc2cccc(O)c2n1 (centres unmarked) [compound 40, 2-{(3-Imidazol-1-yl-propylamino)-[1-(2-methoxy-ethyl)-1H-tetrazol-5-yl]-methyl}-quinolin-8-ol]	3.1 µM
CC(C)(C)Cn1nnnc1C(NCCCn1ccnc1)c1ccc2cccc(O)c2n1 (centres unmarked) [Compound 64, 2-[[1-(2,2-Dimethyl-propyl)-1H-tetrazol-5-yl]-(3-imidazol-1-yl-propylamino)-methyl]-quinolin-8-ol]	0.4 µM
COCCCn1nnnc1C(NCCCn1ccnc1)c1ccc(Cl)c(Cl)c1 (centres unmarked) [compound 32, {(3,4-Dichloro-phenyl)-[1-(3-methoxy-propyl)-1H-tetrazol-5-yl]-methyl}-(3-imidazol-1-yl-propyl)-amine]	7.6 µM
CC(C)(C)Cn1nnnc1C(NCCCn1ccnc1)c1ccc2ccccc2n1 (centres unmarked) [compound 66, {[1-(2,2-Dimethyl-propyl)-1H-tetrazol-5-yl]-quinolin-2-yl-methyl}-(3-imidazol-1-yl-propyl)-amine]	3.1 µM
c1cn(CCCNC(c2ccc3[nH]ccc3c2)c2nnnn2C2CC2)cn1 (centres unmarked) [compound 69, [(1-Cyclopropyl-1H-tetrazol-5-yl)-(1H-indol-5-yl)-methyl]-(3-imidazol-1-yl-propyl)-amine]	4.9 µM
COC(=O)Cn1nnnc1C(NCCCn1ccnc1)c1ccc(Cl)c(Cl)c1 (centres unmarked) [compound 50, {5-[(3,4-Dichloro-phenyl)-(3-imidazol-1-yl-propylamino)-methyl]-tetrazol-1-yl}-acetic methyl ester]	4 µM

The next lines start with the values.

IC50	SMILES
6.7 µM	CCCC(C)C(Nc1ccc2[nH]cnc2c1)c1nnnn1CC(=O)N1CCc2ccccc2C1 (centres unmarked) [compound 98, 2-{5-[1-(1H-Benzoimidazol-5-ylamino)-2-methyl-pentyl]-tetrazol-1-yl}-1-(3,4-dihydro-1H-isoquinolin-2-yl)-ethanone]
5.8 µM	CCCC(Nc1ccc2[nH]cnc2c1)c1nnnn1Cc1ccccc1 (centres unmarked) [compound 110, (1H-Benzoimidazol-5-yl)-[1-(1-benzyl-1H-tetrazol-5-yl)-butyl]-amine]
2.2 µM	CCCOc1cccc(C(Nc2ccc3[nH]cnc3c2)c2nnnn2Cc2cccnc2)c1 (centres unmarked) [compound 74, (1H-Benzoimidazol-5-yl)-[(3-propoxy-phenyl)-(1-pyridin-3-ylmethyl-1H-tetrazol-5-yl)-methyl]-amine]
3.1 µM	CC(Cc1ccc2c(c1)OCO2)C(Nc1ccc2[nH]cnc2c1)c1nnnn1Cc1ccccc1Cl (centres unmarked) [compound 113]
